In patent EP0800516B1, “FIBRINOGEN RECEPTOR ANTAGONISTS HAVING SUBSTITUTED (b)-AMINO ACID RESIDUES AND PHARMACEUTICAL COMPOSITIONS COMPRISING THE SAME” (Nippon Steel Corporation, priority 1994, dated 1996):
pIC50: −log10 of the molar value.

Test system: Human Platelet Aggregation
Test: in vitro human platelet aggregation using PRP (collagen-induced, light transmittance)
Assay type: cell-based
Conditions: aggregation induced with collagen (final concentration: 5 µ g/ml), 37°C
From the text: (Measurement of in vitro Human Platelet Aggregation using PRP)
Healthy male volunteers who had not taken any medicines for at least two weeks were selected as subjects. Blood was collected from the forearm vein of each subject on an empty stomach using a #19 needle and a plastic syringe preliminarily charged with 1/10 volume of a 3.8% sodium citrate solution. Immediately after the blood collection, the syringe was shaken gently to mix the blood with the sodium citrate solution. The mixed blood was centrifuged (1100 rpm, 250 g) at room temperature for 15 minutes and the rotation was stopped without applying the brake. Then, the supernatant was collected with a Komagome type pipette to obtain platelet-rich plasma (PRP). The PRP was stored at room temperature. The blood remaining after centrifuging was further centrifuged (3500 rpm, 1500 g) at room temperature for 15 minutes and the rotation was stopped without applying the brake. The supernatant was collected to obtain platelet-poor plasma (PPP). After the preparation of the PRP, the number of platelets was counted and only samples containing more than 2 x 10^8 of platelets per milliliter were subjected to the following experiments.
Platelet aggregation was measured using an 8-channel platelet aggregation measuring instrument (Hematracer, Nikoh Bioscience, Tokyo, Japan) on the basis of the change in light transmittance through the PRP. First, the PPP and PRP (each 200µl) were placed in glass cuvettes and incubated at 37°C . Thereafter, the transmittance was measured. The transmittance of the PPP was determined as 100% and that of the PRP as 0%. Then, 10µl of physiological saline or a sample-containing physiological saline was added to the PRP and incubated at 37°C for one minute. A collagen solution (10 µ l) at a concentration of […] was added (final concentration: 5 µ g/ml) to induce aggregation and thereafter the transmittance was measured over 7 minutes. After aggregation with collagen and ADP was confirmed, only those samples in which the maximum aggregation with collagen was at least 70% were subjected to the experiment.
The sample was dissolved in physiological saline to give a concentration of 2.2 x 10 ^-2 M and a 2-fold dilution series was prepared for use in the experiments. The samples insoluble in the physiological saline were dissolved in physiological saline containing 10% DMSO (dimethyl sulfoxide).
The results were calculated as follows: [formula]
A graph was constructed by plotting the percent aggregation inhibition against the sample concentration and the concentration at which the aggregation was inhibited by 50% (IC50) was calculated from the graph.

| Structure (SMILES) | pIC50 |
| --- | --- |
| COc1ccc(C(NC(=O)c2ccc(C(=N)N)cc2)C(C)(C)C(=O)N2CCC(CC(=O)O)CC2)cc1 (stereo not drawn) [Example 8, N-(N-4-amidinobenzoyl-β-p-methoxyphenyl-α, α-dimethyl-β-alanyl)-4-piperidineacetic acid] | 6.60 |
| CC(C)(C(=O)N1CCC(CC(=O)O)CC1)C(NC(=O)c1ccc(C(=N)N)cc1)c1ccc(F)cc1 (stereo not drawn) [Example 10, N-(N-4-amidinobenzoyl-β-p-fluorophenyl-α, α-dimethyl-β-alanyl)-4-piperidineacetic acid] | 6.64 |
| N=C(N)c1ccc(C(=O)NC(CC(=O)N2CCC(CC(=O)O)CC2)c2ccccc2)cc1 (stereo not drawn) [Comparative Example 3, N-(N-4-amidinobenzoyl-β-phenyl-β -alanyl)-4-piperidineacetic acid, reference compound] | 5.28 |
| CC(C)CC(NC(=O)c1ccc(C(=N)N)cc1)C(C)(C)C(=O)N1CCC(CC(=O)O)CC1 (stereo not drawn) [Example 24, N-(N-4-amidinobenzoyl-β-i-butyl-α,α-dimethyl-β-alanyl)-4-piperidineacetic acid] | 7.10 |
| CC(NC(=O)c1ccc(C(=N)N)cc1)C(C)(C)C(=O)N1CCC(CC(=O)O)CC1 (stereo not drawn) [Example 22, N-(N-4-amidinobenzoyl-β-methyl-α,α-dimethyl-β-alanyl)-4-piperidineacetic acid] | 6.28 |
| CCC(NC(=O)c1ccc(C(=N)N)cc1F)C(C)(C)C(=O)N1CCC(CC(=O)O)CC1 (stereo not drawn) [Example 39, N-(N-4-amidino-2-fluorobenzoyl-β-ethyl-α, α-dimethyl-β-alanyl)-4-piperidineacetic acid] | 7.21 |
| CC(C)(CNC(=O)c1ccc(C(=N)N)cc1)C(=O)N1CCC(CC(=O)O)CC1 [Example 1, N-(N-4-amidinobenzoyl-α,α-dimethyl-β-alanyl)-4-piperidineacetic acid] | 6.24 |
| CC(C)(C(=O)N1CCC(CC(=O)O)CC1)C(CCc1ccccc1)NC(=O)c1ccc(C(=N)N)cc1 (stereo not drawn) [Example 11, N-(N-4-amidinobenzoyl-β-phenethyl-α,α-dimethyl-β-alanyl)-4-piperidineacetic acid] | 6.80 |
| C#CC(NC(=O)c1ccc(C(=N)N)cc1)C(C)(C)C(=O)N1CCC(CC(=O)O)CC1 (stereo not drawn) [Example 38, N-(N-4-amidinobenzoyl-β-ethynyl-α,α-dimethyl-β-alanyl)-4-piperidineacetic acid] | 6.82 |
| CCC(C(=O)N1CCC(CC(=O)O)CC1)C(/C=C/c1ccccc1)NC(=O)c1ccc(C(=N)N)cc1 (stereo not drawn) [Comparative Example 6, N-(N-4-amidinobenzoyl-β-trans-styryl-α-ethyl-β-alanyl)-4-piperidineacetic acid, reference compound] | 4.07 |
| CC(C(=O)N1CCC(CC(=O)O)CC1)C(NC(=O)c1ccc(C(=N)N)cc1)c1ccccc1 (stereo not drawn) [Comparative Example 10, N-(N-4-amidinobenzoyl-β-phenyl-α-methyl-β-alanyl)-4-piperidineacetic acid, reference compound] | 4.80 |
| CCCCc1ccc(C(NC(=O)c2ccc(C(=N)N)cc2)C(C)(C)C(=O)N2CCC(CC(=O)O)CC2)cc1 (stereo not drawn) [Example 32, N-(N-4-amidinobenzoyl-β-p-n-butylphenyl-α, α-dimethyl-β-alanyl)-4-piperidineacetic acid] | 6.82 |
| COc1ccccc1C(NC(=O)c1ccc(C(=N)N)cc1)C(C)(C)C(=O)N1CCC(CC(=O)O)CC1 (stereo not drawn) [Example 26, N-(N-4-amidinobenzoyl-β-o-methoxyphenyl-α, α-dimethyl-β-alanyl)-4-piperidineacetic acid] | 6.47 |
| CC(C)(C(=O)N1CCN(CC(=O)O)CC1)C(NC(=O)c1ccc(C(=N)N)cc1)c1ccccc1 (stereo not drawn) [Example 23, N-(N-4-amidinobenzoyl-β-phenyl-α,α-dimethyl-β-alanyl)-4-piperazineacetic acid] | 6.21 |
| CN(C)c1ccc(C(NC(=O)c2ccc(C(=N)N)cc2)C(C)(C)C(=O)N2CCC(CC(=O)O)CC2)cc1 (stereo not drawn) [Example 31, N-(N-4-amidinobenzoyl-β-p-N,N-dimethylaminophenyl-α, α-dimethyl-β-alanyl)-4-piperidineacetic acid] | 6.33 |
| CCCCC(NC(=O)c1ccc(C(=N)N)cc1)C1(C(=O)N2CCC(CC(=O)O)CC2)CCCCC1 (stereo not drawn) [Example 30, N-(((N-4-amidinobenzoyl)-1-amino)-1-pentyl-1-cyclohexane-carbonyl)-4-piperidineacetic acid] | 6.80 |
| CCCCC(NC(=O)c1ccc(C(=N)N)cc1)C(C)(C)C(=O)N1CCC(CC(=O)O)CC1 (stereo not drawn) [Example 6, N-(N-4-amidinobenzoyl-β-normal-butyl-α,α-dimethyl-β-alanyl)-4-piperidineacetic acid] | 7.08 |

| Structure (SMILES) | pIC50 |
| --- | --- |
| CC(C)(C(=O)N1CCC(CC(=O)O)CC1)C(NC(=O)c1ccc(C(=N)N)cc1)c1cccc(Cl)c1 (stereo not drawn) [Example 9, N-(N-4-amidinobenzoyl-β-m-chlorophenyl-α,α -dimethyl-β-alanyl)-4-piperidineacetic acid] | 6.74 |
| CCCCNC(=N)c1ccc(C(=O)NC(c2cccc(Cl)c2)C(C)(C)C(=O)N2CCC(CC(=O)O)CC2)cc1 (stereo not drawn) [Example 18] | 6.00 |
| CCCC(NC(=O)c1ccc(C(=N)N)cc1)C(C)(C)C(=O)N1CCC(CC(=O)O)CC1 (stereo not drawn) [Example 4, N-(N-4-amidinobenzoyl-β-n-propyl-α,α-dimethyl-β-alanyl)-4-piperidineacetic acid] | 7.05 |
| CCCCCC(NC(=O)c1ccc(C(=N)N)cc1)C(C)(C)C(=O)N1CCC(CC(=O)O)CC1 (stereo not drawn) [Example 7, N-(N-4-amidinobenzoyl-β-normal-pentyl-α,α -dimethyl-β-alanyl)-4-piperidineacetic acid] | 6.77 |
| CC(C)(C(=O)N1CCC(CC(=O)O)CC1)C(NC(=O)c1ccc(C(=N)N)cc1)c1cccc(O)c1 (stereo not drawn) [Example 28, N-(N-4-amidinobenzoyl-β-m-hydroxyphenyl-α, α-dimethyl-β-alanyl)-4-piperidineacetic acid] | 7.12 |
| CC(NC(=O)c1ccc(C(=N)N)cc1F)C(C)(C)C(=O)N1CCC(CC(=O)O)CC1 (stereo not drawn) [Example 40, N-(N-4-amidino-2-fluorobenzoyl-β-methyl-α, α-dimethyl-β-alanyl)-4-piperidineacetic acid] | 7.12 |
| CC(C)(C(=O)N1CCC(CC(=O)O)CC1)C(NC(=O)c1ccc(C(=N)N)cc1)c1ccc(Cl)cc1 (stereo not drawn) [Example 25, N-(N-4-amidinobenzoyl-β-p-chlorophenyl-α,α -dimethyl-β-alanyl)-4-piperidineacetic acid] | 6.32 |
| CCC(C(=O)N1CCC(CC(=O)O)CC1)C(NC(=O)c1ccc(C(=N)N)cc1)c1ccccc1 (stereo not drawn) [Comparative Example 5, N-(N-4-amidinobenzoyl-β-phenyl-α -ethyl-β-alanyl)-4-piperidineacetic acid, reference compound] | 4.80 |
| CCC(CNC(=O)c1ccc(C(=N)N)cc1)C(=O)N1CCC(CC(=O)O)CC1 (stereo not drawn) [Comparative Example 4, N-(N-4-amidinobenzoyl-α-ethyl-β -alanyl)-4-piperidineacetic acid, reference compound] | 6.05 |
| CC(C)C(C(=O)N1CCC(CC(=O)O)CC1)C(/C=C/c1ccccc1)NC(=O)c1ccc(C(=N)N)cc1 (stereo not drawn) [Comparative Example 9, N-(N-4-amidinobenzoyl-β-trans-styryl-α-isopropyl-β-alanyl)-4-piperidineacetic acid, reference compound] | 4.05 |
| CC(C)(C(=O)N1CCC(CC(=O)O)CC1)C(C=Cc1ccccc1)NC(=O)c1ccc(C(=N)N)cc1 (stereo not drawn) [Example 14, N-(N-4-amidinobenzoyl-β-styryl-α,α-dimethyl-β-alanyl)-4-piperidineacetic acid] | 6.34 |
| CC(C)C(CNC(=O)c1ccc(C(=N)N)cc1)C(=O)N1CCC(CC(=O)O)CC1 (stereo not drawn) [Comparative Example 7, N-(N-4-amidinobenzoyl-α-isopropyl-β-alanyl)-4-piperidineacetic acid, reference compound] | 4.77 |
| CC(C)(C(=O)N1CCC(CC(=O)O)CC1)C(NC(=O)c1ccc(C(=N)N)cc1)c1ccccc1 (stereo not drawn) [Example 2, N-(N-4-amidinobenzoyl-β-phenyl-α,α-dimethyl-β-alanyl)-4-piperidineacetic acid] | 6.72 |
| CCC(NC(=O)c1ccc(C(=N)N)cc1)C(C)(C)C(=O)N1CCC(CC(=O)O)CC1 (stereo not drawn) [Example 3, N-(N-4-Amidinobenzoyl-β-ethyl-α,α-dimethyl-β-alanyl)-4-piperidineacetic acid] | 7.08 |
| CC(C)(C(=O)N1CCC(CC(=O)O)CC1)C(NC(=O)c1ccc(C(=N)N)cc1)C1CC1 (stereo not drawn) [Example 17] | 6.74 |
| CN(C(=O)c1ccc(C(=N)N)cc1)C(c1ccccc1)C(C)(C)C(=O)N1CCC(CC(=O)O)CC1 (stereo not drawn) [Example 21, N-(N-4-amidinobenzoyl-N-methyl-β-phenyl-α, α-dimethyl-β-alanyl)-4-piperidineacetic acid] | 6.48 |
